The record followed here is patent US7528138B2, “Pyrazolo[1,5-a]pyrimidines useful as inhibitors of protein kinases” (Vertex Pharmaceuticals Incorporated, priority 2004, dated 2009).

Holding throughout (type): biochemical
One experiment has as its target c-Met (Homo sapiens, UniProt P08581). As to the kind of experiment: c-Met Inhibition Assay, coupled enzyme system. As to conditions: enzyme inhibition data (Ki), Table 11. In a few lines:
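Pyruvate kinase/lactate dehydrogenase-coupled NADH assay in HEPES pH 7.5 with 80 nM c-Met, 200 μM ATP and 10 μM polyGluTyr at 30° C. Compound (0.006–12.5 μM final, 12-point) preincubated 10 min before ATP start; rates over 10 min gave Ki.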

For another experiment, the target named is T1, JAK3 (Homo sapiens, UniProt P52333).
T1 sequence (P52333 1-1124): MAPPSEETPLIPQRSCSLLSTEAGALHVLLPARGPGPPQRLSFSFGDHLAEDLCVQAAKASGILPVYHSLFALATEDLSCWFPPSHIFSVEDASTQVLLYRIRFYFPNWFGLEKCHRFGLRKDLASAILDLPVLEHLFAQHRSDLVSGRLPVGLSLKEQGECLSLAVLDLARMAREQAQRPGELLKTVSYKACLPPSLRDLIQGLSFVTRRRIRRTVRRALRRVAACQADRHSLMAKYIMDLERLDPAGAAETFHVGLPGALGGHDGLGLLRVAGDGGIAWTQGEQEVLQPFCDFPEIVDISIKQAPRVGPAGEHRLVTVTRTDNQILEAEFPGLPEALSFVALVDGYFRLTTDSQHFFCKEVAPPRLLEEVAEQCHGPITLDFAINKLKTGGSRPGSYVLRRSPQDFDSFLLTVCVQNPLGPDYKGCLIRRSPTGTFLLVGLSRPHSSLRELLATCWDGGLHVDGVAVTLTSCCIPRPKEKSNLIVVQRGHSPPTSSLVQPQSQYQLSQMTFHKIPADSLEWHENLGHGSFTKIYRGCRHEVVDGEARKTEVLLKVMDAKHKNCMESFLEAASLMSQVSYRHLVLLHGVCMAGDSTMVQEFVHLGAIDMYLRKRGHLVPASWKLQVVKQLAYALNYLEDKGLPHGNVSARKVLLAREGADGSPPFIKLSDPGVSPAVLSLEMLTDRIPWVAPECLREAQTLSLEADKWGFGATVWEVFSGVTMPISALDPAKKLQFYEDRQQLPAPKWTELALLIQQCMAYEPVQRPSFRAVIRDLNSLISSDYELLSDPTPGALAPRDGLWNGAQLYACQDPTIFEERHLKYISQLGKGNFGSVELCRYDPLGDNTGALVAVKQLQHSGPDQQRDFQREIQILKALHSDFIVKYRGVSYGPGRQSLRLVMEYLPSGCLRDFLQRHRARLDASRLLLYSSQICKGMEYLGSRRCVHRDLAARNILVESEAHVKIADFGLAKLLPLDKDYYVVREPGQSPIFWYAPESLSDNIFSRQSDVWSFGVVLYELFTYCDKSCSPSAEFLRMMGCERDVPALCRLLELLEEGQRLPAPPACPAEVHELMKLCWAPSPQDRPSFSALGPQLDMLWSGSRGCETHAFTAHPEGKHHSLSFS
Kind of experiment: JAK3 Inhibition Assay, 33P incorporation. The conditions noted are these: enzyme inhibition data (Ki), Table 11. In a few lines:
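33P incorporation into 1 μM poly(Glu)4Tyr was counted after TCA stop and glass fiber filtration. The 20 min reaction ran at 25 °C with 1 nM JAK3 and 5 μM ATP (200 uCi/μmole). Buffer was 100 mM HEPES pH 7.4, 10 mM MgCl2, 25 mM NaCl, 1 mM DTT, 0.01% BSA.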

The next experiment addresses T2, Itk (Homo sapiens, UniProt Q08881).
T2 sequence (Q08881 1-620): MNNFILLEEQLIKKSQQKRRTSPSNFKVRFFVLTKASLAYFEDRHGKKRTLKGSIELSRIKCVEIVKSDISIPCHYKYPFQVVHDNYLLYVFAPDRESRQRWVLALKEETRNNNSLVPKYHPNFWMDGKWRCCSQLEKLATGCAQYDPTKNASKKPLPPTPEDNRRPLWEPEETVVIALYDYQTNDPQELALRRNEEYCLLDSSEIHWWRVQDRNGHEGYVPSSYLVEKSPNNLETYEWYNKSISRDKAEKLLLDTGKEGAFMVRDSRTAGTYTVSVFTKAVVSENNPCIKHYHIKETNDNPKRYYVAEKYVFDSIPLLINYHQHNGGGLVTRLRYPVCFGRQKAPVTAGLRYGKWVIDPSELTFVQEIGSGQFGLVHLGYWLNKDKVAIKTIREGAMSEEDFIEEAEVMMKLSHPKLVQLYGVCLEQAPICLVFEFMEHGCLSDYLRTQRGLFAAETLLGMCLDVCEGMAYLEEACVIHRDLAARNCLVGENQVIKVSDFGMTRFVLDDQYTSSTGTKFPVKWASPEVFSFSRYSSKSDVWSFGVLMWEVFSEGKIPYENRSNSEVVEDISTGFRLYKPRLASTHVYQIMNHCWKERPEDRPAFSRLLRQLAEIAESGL
As to the kind of experiment: ITK Inhibition Assay (Radiometric), radioactive-phosphate incorporation. The conditions noted are these: enzyme inhibition data (Ki), Table 11; radiometric or UV assay not stated. The method, boiled down: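 Radiometric 33P incorporation into SAM68 peptide (D332-443) with filter capture and scintillation counting; 10 min pre-incubation then 10 min reaction at 25° C. IC50 format: 30 nM Itk, 15 μM ATP, 2 μM peptide, HEPES pH 7.5. Ki(app) format: 50 nM Itk, 7.5 μM ATP, 3 μM peptide, MOPS pH 7.0.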

Broadly, the Ki is the dissociation constant of the complex between target and ligand, obtained from inhibition or displacement.

Chain of c-Met (P08581 25-1390): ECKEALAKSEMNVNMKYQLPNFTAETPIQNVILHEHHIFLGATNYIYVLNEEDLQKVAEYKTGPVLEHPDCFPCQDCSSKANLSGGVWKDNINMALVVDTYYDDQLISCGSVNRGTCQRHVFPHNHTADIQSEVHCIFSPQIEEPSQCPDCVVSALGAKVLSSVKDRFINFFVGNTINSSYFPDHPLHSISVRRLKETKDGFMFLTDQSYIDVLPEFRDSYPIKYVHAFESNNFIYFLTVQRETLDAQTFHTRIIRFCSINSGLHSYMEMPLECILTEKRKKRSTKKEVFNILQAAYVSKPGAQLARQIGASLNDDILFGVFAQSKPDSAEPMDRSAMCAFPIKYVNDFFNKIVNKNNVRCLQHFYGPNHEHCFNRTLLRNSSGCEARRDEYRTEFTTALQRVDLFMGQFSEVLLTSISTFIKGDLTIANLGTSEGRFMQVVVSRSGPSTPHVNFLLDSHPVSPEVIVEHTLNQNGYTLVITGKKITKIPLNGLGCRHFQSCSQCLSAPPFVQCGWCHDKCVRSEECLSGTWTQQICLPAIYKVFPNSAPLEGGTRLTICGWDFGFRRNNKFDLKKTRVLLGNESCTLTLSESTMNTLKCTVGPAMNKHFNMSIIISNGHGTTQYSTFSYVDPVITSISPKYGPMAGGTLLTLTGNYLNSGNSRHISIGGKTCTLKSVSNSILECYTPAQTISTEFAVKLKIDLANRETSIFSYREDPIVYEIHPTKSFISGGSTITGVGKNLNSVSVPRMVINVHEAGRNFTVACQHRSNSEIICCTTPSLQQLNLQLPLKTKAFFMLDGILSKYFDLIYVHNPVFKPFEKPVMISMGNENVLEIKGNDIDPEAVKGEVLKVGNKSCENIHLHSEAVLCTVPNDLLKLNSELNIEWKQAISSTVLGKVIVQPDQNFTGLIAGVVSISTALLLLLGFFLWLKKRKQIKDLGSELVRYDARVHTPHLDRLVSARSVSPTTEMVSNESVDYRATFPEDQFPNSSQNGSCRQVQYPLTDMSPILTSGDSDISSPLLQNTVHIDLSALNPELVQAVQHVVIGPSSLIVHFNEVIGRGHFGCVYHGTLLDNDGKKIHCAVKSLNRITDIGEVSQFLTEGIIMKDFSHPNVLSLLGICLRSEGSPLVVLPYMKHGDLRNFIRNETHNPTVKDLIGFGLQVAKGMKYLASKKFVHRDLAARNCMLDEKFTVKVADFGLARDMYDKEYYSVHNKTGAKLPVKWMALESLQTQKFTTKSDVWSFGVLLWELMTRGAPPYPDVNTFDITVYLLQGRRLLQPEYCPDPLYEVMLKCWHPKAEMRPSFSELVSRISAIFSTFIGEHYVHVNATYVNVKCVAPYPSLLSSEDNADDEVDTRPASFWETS

In the case of `CN(CC1OCCO1)C(=O)c1ccc(-c2cnc3c(-c4ccccn4)c(N)nn3c2)nc1` [Compound V-95], the inhibition constant (Ki) at c-Met was less than 500 nM; on JAK3, 500 to 5000 nM; on Itk, less than 500 nM.
Regarding `CCN(CCO)C(=O)c1ccc(-c2cnc3c(-c4ccccn4)c(N)nn3c2)nc1` [Compound V-99], the Ki was less than 500 nM at c-Met, 500 to 5000 nM on JAK3 and less than 500 nM at Itk.
On to `CN(CCc1ccccn1)C(=O)c1cccc(-c2cnc3c(-c4ccccn4)c(N)nn3c2)n1` [Compound V-100], for which the Ki at c-Met is less than 500 nM; at JAK3, more than 5000 nM; at Itk, 500 to 5000 nM.
On to `CC(C)N(C)C(=O)c1cccc(-c2cnc3c(-c4ccccn4)c(N)nn3c2)n1` [Compound V-103], for which the inhibition constant Ki at c-Met is less than 500 nM; at JAK3 it was more than 5000 nM; on Itk, 500 to 5000 nM.
`CN1CCCN(C(=O)c2cccc(-c3cnc4c(-c5ccccn5)c(N)nn4c3)n2)CC1` [Compound V-105]: the Ki is less than 500 nM on c-Met, more than 5000 nM on JAK3 and 500 to 5000 nM at Itk.
Take `Nc1nn2cc(-c3cccc(C(=O)NCCF)n3)cnc2c1-c1ccccn1` [Compound V-107]: the Ki on c-Met was less than 500 nM; on JAK3 it was 500 to 5000 nM; at Itk, 500 to 5000 nM.
Regarding `COCCCNC(=O)c1cccc(-c2cnc3c(-c4ccccn4)c(N)nn3c2)n1` [Compound V-108], the Ki is less than 500 nM on c-Met, more than 5000 nM at JAK3 and 500 to 5000 nM on Itk.
Taken in the same sequence, the figures for `CCCCNC(=O)c1cccc(-c2cnc3c(-c4ccccn4)c(N)nn3c2)n1` [Compound V-109] were less than 500 nM, more than 5000 nM and 500 to 5000 nM.
In the case of `CCN(CCCCN)C(=O)c1cccc(-c2cnc3c(-c4ccccn4)c(N)nn3c2)n1` [Compound V-110], the values for the Ki at c-Met, at JAK3 and on Itk were less than 500 nM, 500 to 5000 nM and less than 500 nM, respectively.
Turning to `CCCN(CCO)C(=O)c1cccc(-c2cnc3c(-c4ccccn4)c(N)nn3c2)n1` [Compound V-111], the Ki was less than 500 nM at c-Met, more than 5000 nM at JAK3 and 500 to 5000 nM on Itk.
Regarding `CCCCN(CCN)C(=O)c1cccc(-c2cnc3c(-c4ccccn4)c(N)nn3c2)n1` [Compound V-113], the Ki on c-Met is less than 500 nM; at JAK3 it was 500 to 5000 nM; at Itk, less than 500 nM.
Regarding `COCCCN1CCN(C(=O)c2cccc(-c3cnc4c(-c5ccccn5)c(N)nn4c3)n2)CC1` [Compound V-117], the inhibition constant (Ki) was less than 500 nM on c-Met, more than 5000 nM at JAK3 and 500 to 5000 nM on Itk.
For `CNC(=O)c1cccc(-c2cnc3c(-c4ccccn4)c(N)nn3c2)n1` [Compound V-118] the same measures were less than 500 nM, more than 5000 nM and 500 to 5000 nM.
Taken in the same sequence, the figures for `Nc1nn2cc(-c3cccc(C(=O)N4CCC(N)C4)n3)cnc2c1-c1ccccn1` (stereo not drawn) [Compound V-119] were less than 500 nM, 500 to 5000 nM and 500 to 5000 nM.
Take `CN(CCN)C(=O)c1cccc(-c2cnc3c(-c4ccccn4)c(N)nn3c2)n1` [Compound V-120]: the Ki at c-Met was less than 500 nM; on JAK3, 500 to 5000 nM; on Itk it was less than 500 nM.
Regarding `CCCN(CCCN)C(=O)c1cccc(-c2cnc3c(-c4ccccn4)c(N)nn3c2)n1` [Compound V-122], the inhibition constant Ki on c-Met is less than 500 nM; at JAK3, 500 to 5000 nM; on Itk it was less than 500 nM.
As for `Nc1nn2cc(-c3cccc(C(=O)N4CCC4)n3)cnc2c1-c1ccccn1` [Compound V-123], the figures for the inhibitory constant (Ki) at c-Met, on JAK3 and at Itk were less than 500 nM, more than 5000 nM and 500 to 5000 nM, respectively.
In the case of `CC(C)CN(C)C(=O)c1cccc(-c2cnc3c(-c4ccccn4)c(N)nn3c2)n1` [Compound V-125], the Ki at c-Met is less than 500 nM; at JAK3, more than 5000 nM; on Itk it was 500 to 5000 nM.
With `CCN(CCN)C(=O)c1cccc(-c2cnc3c(-c4ccccn4)c(N)nn3c2)n1` [Compound V-126], the Ki at c-Met was less than 500 nM; on JAK3, more than 5000 nM; on Itk, 500 to 5000 nM.
Consider `CCN(CCO)C(=O)c1cccc(-c2cnc3c(-c4ccccn4)c(N)nn3c2)n1` [Compound V-128], for which the values for the inhibition constant Ki on c-Met, on JAK3 and on Itk were less than 500 nM, more than 5000 nM and 500 to 5000 nM, respectively.
`Nc1nn2cc(-c3ccncc3)cnc2c1C(=O)c1ccccc1` [Compound V-131]: the Ki at c-Met, at JAK3 and on Itk was 500 to 5000 nM throughout.
On to `Nc1nn2cc(-c3ccncn3)cnc2c1-c1nncn1Cc1ccc(Cl)c(Cl)c1` [Compound V-136], for which the inhibition constant (Ki) on c-Met was 500 to 5000 nM; at JAK3, more than 5000 nM; on Itk it was 500 to 5000 nM.
With `Nc1nn2cc(-c3ccncc3)cnc2c1-c1cccc(Br)n1` [Compound V-137], the inhibitory constant (Ki) on c-Met was 500 to 5000 nM; on JAK3 it was more than 5000 nM; at Itk, 500 to 5000 nM.
As for `Nc1nn2cc(-c3ccncc3)cnc2c1-c1cccc(NCCC2=CCCCC2)n1` [Compound V-138], the results for the Ki on c-Met, on JAK3 and on Itk were 500 to 5000 nM, more than 5000 nM and 500 to 5000 nM, respectively.
Turning to `Nc1nn2cc(-c3cccc(C(=O)N4CCCC(O)C4)n3)cnc2c1-c1ccccn1` (stereo not drawn) [Compound V-140], the results for the inhibition constant (Ki) at c-Met, on JAK3 and on Itk were less than 500 nM, more than 5000 nM and 500 to 5000 nM, respectively.
Regarding `Nc1nn2cc(-c3cccc(C(=O)N4CCC(CCO)CC4)n3)cnc2c1-c1ccccn1` [Compound V-141], the figures for the Ki at c-Met, at JAK3 and on Itk were less than 500 nM, more than 5000 nM and 500 to 5000 nM, respectively.
Turning to `CN(CC1OCCO1)C(=O)c1cccc(-c2cnc3c(-c4ccccn4)c(N)nn3c2)n1` [Compound V-142], the values for the Ki on c-Met, at JAK3 and at Itk were less than 500 nM, 500 to 5000 nM and 500 to 5000 nM, respectively.
For `Nc1nn2cc(-c3ccc(N4CCOCC4)nc3)cnc2c1-c1ccccn1` [Compound V-144], the inhibition constant Ki was less than 500 nM on c-Met, more than 5000 nM on JAK3 and 500 to 5000 nM on Itk.
Turning to `CN1CCN(c2ccc(-c3cnc4c(-c5ccccn5)c(N)nn4c3)cn2)CC1` [Compound V-145], the inhibition constant (Ki) on c-Met is less than 500 nM; at JAK3, more than 5000 nM; at Itk, less than 500 nM.
Turning to `Nc1nn2cc(-c3ccc(N4CCCCC4)nc3)cnc2c1-c1ccccn1` [Compound V-147], the values for the inhibitory constant (Ki) on c-Met, on JAK3 and at Itk were 500 to 5000 nM, more than 5000 nM and 500 to 5000 nM, respectively.
Turning to `Nc1nn2cc(-c3ccc(N4CCN(CCO)CC4)nc3)cnc2c1-c1ccccn1` [Compound V-148], the Ki was less than 500 nM at c-Met, 500 to 5000 nM on JAK3 and less than 500 nM on Itk.
